Laboratory results reported in ChEMBL document CHEMBL5029185, “Discovery of Novel Polycyclic Heterocyclic Derivatives from Evodiamine for the Potential Treatment of Triple-Negative Breast Cancer” (J Med Chem, 2021).
Activity calls are given as the source filed them. The rule behind the calls is not given here.

What was measured:
MDA-MB-231 [1] = assay: Antiproliferative activity against human MDA-MB-231 cells assessed as inhibition rate at 100 uM incubated for 72 hrs by MTT assay; format: functional
MDA-MB-231 [2] = assay: Antiproliferative activity against human MDA-MB-231 cells assessed as inhibition rate at 10 uM incubated for 72 hrs by MTT assay; format: functional
MDA-MB-231 [3] = assay: Antiproliferative activity against human MDA-MB-231 cells assessed as inhibition rate at 1 uM incubated for 72 hrs by MTT assay; format: functional
MDA-MB-435 = assay: Antiproliferative activity against human MDA-MB-435 cells assessed as inhibition rate incubated for 72 hrs by MTT assay; format: functional, cell-based; details: MDA-MB-435, 72 h
HCT-116 = assay: Antiproliferative activity against human HCT-116 cells assessed as inhibition rate incubated for 72 hrs by MTT assay; format: functional, cell-based; details: HCT-116, 72 h
A549 = assay: Antiproliferative activity against human A549 cells assessed as inhibition rate incubated for 72 hrs by MTT assay; format: functional, cell-based; details: A549, 72 h
MDA-MB-231 [4] = assay: Antiproliferative activity against human MDA-MB-231 cells assessed as inhibition rate incubated for 72 hrs by MTT assay; format: functional, cell-based; details: MDA-MB-231, 72 h
[5] = molecular target: T1, DNA topoisomerase 1 (Homo sapiens) (UniProt P11387); assay: Inhibition of topoisomerase 1 (unknown origin) assessed as relaxation of supercoiled plasmid pBR322 DNA upto 500 uM incubated for 15 mins by agarose gel electrophoresis; details: dose microM <=500, time 15.0 min
T1 sequence (whole entry): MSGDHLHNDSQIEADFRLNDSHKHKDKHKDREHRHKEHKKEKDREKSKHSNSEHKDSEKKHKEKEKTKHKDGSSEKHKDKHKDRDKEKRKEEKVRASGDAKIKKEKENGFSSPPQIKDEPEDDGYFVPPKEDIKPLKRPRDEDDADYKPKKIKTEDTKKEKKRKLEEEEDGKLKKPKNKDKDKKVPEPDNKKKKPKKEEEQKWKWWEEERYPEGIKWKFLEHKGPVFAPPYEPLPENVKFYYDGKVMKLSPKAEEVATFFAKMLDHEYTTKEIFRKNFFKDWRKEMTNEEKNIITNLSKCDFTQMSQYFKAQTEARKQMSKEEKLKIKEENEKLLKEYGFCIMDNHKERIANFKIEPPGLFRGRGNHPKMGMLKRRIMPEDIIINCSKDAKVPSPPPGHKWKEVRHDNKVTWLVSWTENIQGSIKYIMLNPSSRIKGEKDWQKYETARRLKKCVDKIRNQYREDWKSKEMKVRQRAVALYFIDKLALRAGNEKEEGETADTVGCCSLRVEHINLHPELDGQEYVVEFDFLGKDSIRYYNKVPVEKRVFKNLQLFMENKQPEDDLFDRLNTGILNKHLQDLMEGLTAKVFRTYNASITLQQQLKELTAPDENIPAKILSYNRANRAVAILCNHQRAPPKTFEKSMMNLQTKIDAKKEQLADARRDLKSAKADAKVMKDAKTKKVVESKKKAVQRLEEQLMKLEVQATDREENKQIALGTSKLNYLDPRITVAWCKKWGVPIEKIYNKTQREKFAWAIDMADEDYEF

4T1 = assay: Antiproliferative activity against mouse 4T1 cells assessed as inhibition rate incubated for 72 hrs by MTT assay; format: functional, cell-based; details: 4T1, 72 h
MCF7 = assay: Antiproliferative activity against human MCF7 cells assessed as inhibition rate incubated for 72 hrs by MTT assay; format: functional, cell-based; details: MCF7, 72 h
HepG2 = assay: Antiproliferative activity against human HepG2 cells assessed as inhibition rate incubated for 72 hrs by MTT assay; format: functional, cell-based; details: HepG2, 72 h
H22 = assay: Antiproliferative activity against mouse H22 cells assessed as inhibition rate incubated for 72 hrs by MTT assay; format: functional, cell-based; details: H22, 72 h
LoVo = assay: Antiproliferative activity against human LoVo cells assessed as inhibition rate incubated for 72 hrs by MTT assay; format: functional, cell-based
[6] = molecular target: T1, DNA topoisomerase 1 (Homo sapiens); assay: Induction of topoisomerase 1-DNA cleavable complex in human MDA-MB-231 cells assessed as increase in cleavable complex by measuring SDS-K+ precipitable complex at 15 uM measured up to 15 hrs by liquid scintillation counting analysis; format: cell-based; details: time hrs <=15
MDA-MB-231 [7] = assay: Antiproliferative activity against human MDA-MB-231 cells transfected with siRNA-Ctrl assessed as cell viability by MTT assay; format: functional, cell-based
MDA-MB-231 [8] = assay: Antiproliferative activity against human MDA-MB-231 cells transfected with siRNA-Top1 assessed as cell viability by MTT assay; format: functional, cell-based
[9] = Ratio of IC50 for antiproliferative activity against human MDA-MB-231 cells transfected with siRNA-Top1 to IC50 for antiproliferative activity against human MDA-MB-231 cells transfected with siRNA-Ctrl assessed as cell viability by MTT assay; format: functional
MCF-10A = assay: cells; format: ADME, cell-based; details: Homo sapiens, 72 h
Description: Antiproliferative activity against human MCF-10A cells assessed as inhibition rate incubated for 72 hrs by MTT assay

[10] = Selectivity index, ratio of IC50 for human MCF-10A cells to IC50 for human MDA-MB-231 cells
HEK293 = assay: cells; format: ADME, cell-based; details: Homo sapiens, HEK293, 72 h
Description: Antiproliferative activity against HEK293 cells assessed as inhibition rate incubated for 72 hrs by MTT assay

Row | SMILES | inhibition at 100 µM (MDA-MB-231 [1]) | inhibition at 10 µM (MDA-MB-231 [2]) | inhibition at 1 µM (MDA-MB-231 [3]) | IC50 (MDA-MB-435) | IC50 (HCT-116) | IC50 (A549) | IC50 (MDA-MB-231 [4]) | also measured
1 | COc1ccc2oc3c(c2c1)CCN1C(=O)c2cccc(C)c2OC31 (centres undefined) | 15% | 11.9% | 7.1% |  |  |  |  | 
2 | COc1ccc2oc3c(c2c1)CCN1C(=O)c2cc(Cl)ccc2OC31 (centres undefined) | 15.9% | 7.3% | 2.3% |  |  |  |  | 
3 | COc1ccc2oc3c(c2c1)CCN1C(=O)c2ccc(C)cc2OC31 (centres undefined) | 41.5% | 19.2% | 7.5% |  |  |  |  | 
4 | COC(=O)c1ccc2[nH]c3c(c2c1)CCN1C(=O)c2ccccc2OC31 (centres undefined) | 45.2% | 15.7% | 12.6% |  |  |  |  | 
5 | COc1ccc2oc3c(c2c1)CCN1C(=O)c2cc(Cl)cc(Cl)c2OC31 (centres undefined) | 12.1% | 5.5% | 8.6% |  |  |  |  | 
6 | O=C1c2ccccc2OC2c3oc4ccc(O)cc4c3CCN12 (centres undefined) | 96.5% | 61.2% | 55.1% | 0.47 µM | 1.26 µM | 4.28 µM | 0.86 µM | Activity [5]: inactive
7 | COc1ccc2nc3c(cc2c1)CN1C(=O)c2ccccc2N(C)C31 (centres undefined) | 80.7% | 11.9% | 7.6% |  |  |  |  | 
8 | Cc1ccc2c(c1)OC1c3oc4ccc(O)cc4c3CCN1C2=O (centres undefined) | 94% | 64.8% | 62.7% | 1.14 µM | 4.71 µM | 10.5 µM | 1.05 µM | Activity [5]: inactive
9 | O=C(O)c1ccc2[nH]c3c(c2c1)CCN1C(=O)c2ccccc2OC31 (centres undefined) | 39.6% | 11.2% | 9.7% |  |  |  |  | 
10 | CN1c2ccccc2C(=O)N2Cc3cc4cc(O)ccc4nc3C21 (centres undefined) | 89.9% | 19.8% | 6.3% |  |  |  |  | 
11 | CC[C@@]1(O)C(=O)OCc2c1cc1n(c2=O)Cc2cc3ccccc3nc2-1 [CAMPTOTHECIN] |  |  |  | 0.31 µM |  | 0.1 µM | 0.42 µM | IC50 (4T1): 0.17 µM; IC50 (MCF7): 0.56 µM; IC50 (HepG2): 0.11 µM; IC50 (H22): 0.54 µM; IC50 (LoVo): 1.54 µM; Activity [6]: Active; IC50 (MDA-MB-231 [7]): 0.264 µM; IC50 (MDA-MB-231 [8]): > 6.4 µM; Ratio IC50 [9]: 24; IC50 (MCF-10A): 2.19 µM; selectivity ratio [10]: 5.2
12 | O=C1c2cc(Cl)cc(Cl)c2OC2c3oc4ccc(O)cc4c3CCN12 (centres undefined) | 96.9% | 59.5% | 32.7% | 2.33 µM | 6.09 µM | 7.58 µM | 3.73 µM | Activity [5]: inactive
13 | COc1ccc2oc3c(c2c1)CCN1C(=O)c2cc(Br)ccc2OC31 (centres undefined) | 13% | 9.2% | 6.8% |  |  |  |  | 
14 | COc1ccc2oc3c(c2c1)CCN1C(=O)c2ccccc2OC31 (centres undefined) | 36.6% | 10.6% | 6% |  |  |  |  | 
15 | CN1c2ccccc2C(=O)N2CCc3c([nH]c4ccccc34)C21 (centres undefined) | 73.3% | 53.3% | 38.9% | 6.3 µM | 32.7 µM | 77.2 µM | 13.3 µM | IC50 (HEK293): > 100 µM; IC50 (MCF-10A): > 100 µM; selectivity ratio ([10]; MCF-10A cells versus MDA-MB-231 cells): > 10.7
16 | Cc1cccc2c1OC1c3oc4ccc(O)cc4c3CCN1C2=O (centres undefined) | 97.4% | 66.5% | 60.6% | 1.95 µM | 3.45 µM | 6.79 µM | 2.52 µM | Activity [5]: inactive
17 | O=C1c2cc(Br)ccc2OC2c3oc4ccc(O)cc4c3CCN12 (centres undefined) | 94.5% | 83.1% | 75.7% | 0.81 µM | 1.71 µM | 4.14 µM | 1.16 µM | Activity [5]: inactive
